Molecular target: T1, HIV-1 Protease (Human immunodeficiency virus type 1 group M subtype B, UniProt P04585)
T1 construct: effect on HIV-1 Protease
Assay: assay of selected molecules for activity (effect on HIV-1 Protease)
Type: biochemical
Details: various concentrations (between 10 and 1000 micro-molar)
Protocol: A set of molecules including the triangle measures were selected and physically assayed and shown to have the expected binding to HIV-1 Protease.
The triplets were used as a query input for a search in MDL's ACD-SC (available chemical directory for screening).
All of molecules were actually assayed and appeared to show activity (effect on HIV-1 Protease) at various concentrations (between 10 and 1000 micro-molar). […] Also molecules 34-39 were assayed, with no activity shown, as expected.

Compound | activity (effect on HIV-1 Protease)
O=C1C2C(c3ccccc3)NC(c3ccccc3)C1C(c1ccccc1)OC2c1ccccc1 (centres unmarked) [compound 7] | active
Cc1c(-c2ccccc2)c(=O)n(C)c2c1c(=O)n(-c1ccccc1)c(=O)n2-c1ccccc1 [compound 27] | active

— patent publication US8019550B2, “Drug discovery method” (Keddem Bioscience Ltd., priority 2002, dated 2011)
